According to article PMC8500670, “A selective WDR5 degrader inhibits acute myeloid leukemia in patient-derived mouse models” (Science translational medicine, 2021):

Tests used:
SET1b Complex = SET1b Complex (Homo sapiens, UniProt Q9UPS6); assay: biochemical; parameters: gene SETD1B; complex; protein methyltransferase inhibition panel, single concentration, duplicate
Method: (§1) We next assessed selectivity of MS67 against 22 protein methyltransferases (table S2) and a broad panel of common drug targets including 45 kinases (table S3) and 44 G protein–coupled receptors (GPCR), ion channels, and transporters (table S4). […] We subsequently determined that MS67 had moderate binding affinity (Ki = 1.0 ± 0.8 μM) to Sigma 2 receptor (fig. S10).

PRMT5/MEP50 Complex = PRMT5/MEP50 Complex (Homo sapiens, UniProt O14744); assay: biochemical; parameters: complex; protein methyltransferase inhibition panel, single concentration, duplicate
Method: as §1

EZH2 Complex = EZH2 Complex (Homo sapiens, UniProt Q15910); assay: biochemical; parameters: complex; protein methyltransferase inhibition panel, single concentration, duplicate
Method: as §1

EZH1 Complex = EZH1 Complex (Homo sapiens, UniProt Q92800); assay: biochemical; parameters: complex; protein methyltransferase inhibition panel, single concentration, duplicate
Method: as §1

von Hippel–Lindau (VHL) = von Hippel–Lindau (VHL) (Homo sapiens, UniProt P40337); assay: ITC; […]-Å crystal structure of WDR5-MS67-VCB ternary complex; assay type: binding
[1] = target: WDR5 (WD40 repeat domain protein 5) (Homo sapiens, UniProt P61964); assay: as above; assay type: binding
5-HT2B = target: T1, 5-HT2B (Homo sapiens, UniProt P41595); assay: biochemical; parameters: NIMH-PDSP radioligand binding assays, percent inhibition of radioligand binding, quadruplicate
T1 construct: gene HTR2B

D4 = target: T2, D4 (Homo sapiens, UniProt P21917); assay: biochemical; parameters: NIMH-PDSP radioligand binding assays, percent inhibition of radioligand binding, quadruplicate
T2 construct: gene DRD4

5-HT1B = target: T3, 5-HT1B (Homo sapiens, UniProt P28222); assay: biochemical; parameters: NIMH-PDSP radioligand binding assays, percent inhibition of radioligand binding, quadruplicate
T3 construct: gene HTR1B

5-HT1E = target: T4, 5-HT1E (Homo sapiens, UniProt P28566); assay: biochemical; parameters: NIMH-PDSP radioligand binding assays, percent inhibition of radioligand binding, quadruplicate
T4 construct: gene HTR1E

Alpha2C = target: T5, Alpha2C (Homo sapiens, UniProt P18825); assay: biochemical; parameters: NIMH-PDSP radioligand binding assays, percent inhibition of radioligand binding, quadruplicate
T5 construct: gene ADRA2C

NET = target: T6, NET (Homo sapiens, UniProt P23975); assay: biochemical; parameters: NIMH-PDSP radioligand binding assays, percent inhibition of radioligand binding, quadruplicate
T6 construct: gene SLC6A2

Beta2 = target: T7, Beta2 (Homo sapiens, UniProt P07550); assay: biochemical; parameters: NIMH-PDSP radioligand binding assays, percent inhibition of radioligand binding, quadruplicate
T7 construct: gene ADRB2

M5 = target: T8, M5 (Homo sapiens, UniProt P08912); assay: biochemical; parameters: NIMH-PDSP radioligand binding assays, percent inhibition of radioligand binding, quadruplicate
T8 construct: gene CHRM5

SERT = target: T9, SERT (Homo sapiens, UniProt P31645); assay: biochemical; parameters: NIMH-PDSP radioligand binding assays, percent inhibition of radioligand binding, quadruplicate
T9 construct: gene SLC6A4

5-HT2C = target: T10, 5-HT2C (Homo sapiens, UniProt P28335); assay: biochemical; parameters: NIMH-PDSP radioligand binding assays, percent inhibition of radioligand binding, quadruplicate
T10 construct: gene HTR2C

SUV39H1 = target: T11, SUV39H1 (Homo sapiens, UniProt O43463); assay: biochemical; parameters: protein methyltransferase inhibition panel, single concentration, duplicate
T11 sequence (O43463 1-412): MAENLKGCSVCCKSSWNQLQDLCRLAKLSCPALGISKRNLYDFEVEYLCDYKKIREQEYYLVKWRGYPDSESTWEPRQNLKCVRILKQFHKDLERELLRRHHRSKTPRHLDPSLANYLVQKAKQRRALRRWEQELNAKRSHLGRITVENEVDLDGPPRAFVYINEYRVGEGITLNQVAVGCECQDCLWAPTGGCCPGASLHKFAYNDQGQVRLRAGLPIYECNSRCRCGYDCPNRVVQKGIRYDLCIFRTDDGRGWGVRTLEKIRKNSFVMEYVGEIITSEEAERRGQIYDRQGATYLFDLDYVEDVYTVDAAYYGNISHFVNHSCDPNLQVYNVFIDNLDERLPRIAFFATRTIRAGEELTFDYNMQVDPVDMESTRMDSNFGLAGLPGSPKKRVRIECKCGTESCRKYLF
Method: as §1

PRMT3 = PRMT3 (Homo sapiens, UniProt O60678); assay: biochemical; parameters: protein methyltransferase inhibition panel, single concentration, duplicate
Method: as §1

PRMT6 = PRMT6 (Homo sapiens, UniProt Q96LA8); assay: biochemical; parameters: protein methyltransferase inhibition panel, single concentration, duplicate
Method: as §1

T3 sequence (P28222 whole entry): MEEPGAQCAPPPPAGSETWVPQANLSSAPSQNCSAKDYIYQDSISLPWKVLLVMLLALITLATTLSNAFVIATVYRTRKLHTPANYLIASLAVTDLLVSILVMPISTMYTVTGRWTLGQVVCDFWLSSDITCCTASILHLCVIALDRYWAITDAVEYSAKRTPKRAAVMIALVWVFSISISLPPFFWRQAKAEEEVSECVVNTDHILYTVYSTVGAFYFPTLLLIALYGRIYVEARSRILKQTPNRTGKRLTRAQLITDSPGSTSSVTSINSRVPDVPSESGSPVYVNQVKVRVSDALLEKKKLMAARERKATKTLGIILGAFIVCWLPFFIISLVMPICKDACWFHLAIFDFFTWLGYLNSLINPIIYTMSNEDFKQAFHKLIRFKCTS
Chain of PRMT6 (Q96LA8 whole entry): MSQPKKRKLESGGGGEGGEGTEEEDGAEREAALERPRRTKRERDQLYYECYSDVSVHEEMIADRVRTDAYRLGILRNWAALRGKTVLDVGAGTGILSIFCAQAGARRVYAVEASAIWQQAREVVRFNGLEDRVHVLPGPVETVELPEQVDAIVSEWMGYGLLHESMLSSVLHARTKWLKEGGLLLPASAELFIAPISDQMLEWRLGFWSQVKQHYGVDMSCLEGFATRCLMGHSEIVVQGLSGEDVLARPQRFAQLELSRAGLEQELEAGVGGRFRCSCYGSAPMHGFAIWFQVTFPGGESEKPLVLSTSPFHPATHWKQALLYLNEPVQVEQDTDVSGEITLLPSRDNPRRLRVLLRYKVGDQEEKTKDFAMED
Chain of PRMT3 (O60678 whole entry): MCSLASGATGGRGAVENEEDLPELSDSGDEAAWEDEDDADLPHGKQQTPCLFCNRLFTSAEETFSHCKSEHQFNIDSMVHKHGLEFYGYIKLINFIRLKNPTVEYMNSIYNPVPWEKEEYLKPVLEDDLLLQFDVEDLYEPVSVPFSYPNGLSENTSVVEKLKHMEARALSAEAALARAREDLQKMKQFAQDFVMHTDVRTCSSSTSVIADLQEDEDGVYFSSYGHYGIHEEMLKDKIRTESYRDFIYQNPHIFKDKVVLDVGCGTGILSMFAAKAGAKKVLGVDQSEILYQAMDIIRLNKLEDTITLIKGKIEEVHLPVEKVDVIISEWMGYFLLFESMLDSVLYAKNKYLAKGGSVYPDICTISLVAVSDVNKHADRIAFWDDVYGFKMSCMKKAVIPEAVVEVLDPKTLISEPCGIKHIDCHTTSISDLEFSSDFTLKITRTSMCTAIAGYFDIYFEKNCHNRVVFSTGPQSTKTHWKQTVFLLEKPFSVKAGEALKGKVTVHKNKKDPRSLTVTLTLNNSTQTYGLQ
T2 sequence (P21917 whole entry): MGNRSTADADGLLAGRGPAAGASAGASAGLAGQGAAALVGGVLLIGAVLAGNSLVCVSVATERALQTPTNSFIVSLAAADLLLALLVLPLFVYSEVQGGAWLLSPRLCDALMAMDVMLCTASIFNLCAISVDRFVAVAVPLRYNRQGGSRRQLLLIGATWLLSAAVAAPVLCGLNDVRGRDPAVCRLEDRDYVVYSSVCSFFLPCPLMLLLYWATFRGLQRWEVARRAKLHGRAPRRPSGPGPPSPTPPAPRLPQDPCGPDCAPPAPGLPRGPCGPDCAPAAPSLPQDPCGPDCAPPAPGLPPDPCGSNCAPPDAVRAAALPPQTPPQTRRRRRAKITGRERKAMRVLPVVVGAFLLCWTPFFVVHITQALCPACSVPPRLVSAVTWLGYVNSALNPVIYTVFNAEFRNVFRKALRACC
T10 sequence (P28335 whole entry): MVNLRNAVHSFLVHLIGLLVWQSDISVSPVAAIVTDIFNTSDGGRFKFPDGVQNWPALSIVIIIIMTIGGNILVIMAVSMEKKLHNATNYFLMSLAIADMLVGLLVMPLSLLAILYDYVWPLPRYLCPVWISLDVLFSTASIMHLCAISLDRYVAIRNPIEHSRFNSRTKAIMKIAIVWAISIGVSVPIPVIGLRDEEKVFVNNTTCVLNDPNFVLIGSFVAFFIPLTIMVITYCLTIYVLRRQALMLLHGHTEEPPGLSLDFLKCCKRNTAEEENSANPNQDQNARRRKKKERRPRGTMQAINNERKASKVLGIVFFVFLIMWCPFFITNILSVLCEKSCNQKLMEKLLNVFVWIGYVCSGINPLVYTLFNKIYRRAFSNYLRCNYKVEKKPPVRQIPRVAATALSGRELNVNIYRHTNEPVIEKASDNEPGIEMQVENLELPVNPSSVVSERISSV
T1 sequence (P41595 whole entry): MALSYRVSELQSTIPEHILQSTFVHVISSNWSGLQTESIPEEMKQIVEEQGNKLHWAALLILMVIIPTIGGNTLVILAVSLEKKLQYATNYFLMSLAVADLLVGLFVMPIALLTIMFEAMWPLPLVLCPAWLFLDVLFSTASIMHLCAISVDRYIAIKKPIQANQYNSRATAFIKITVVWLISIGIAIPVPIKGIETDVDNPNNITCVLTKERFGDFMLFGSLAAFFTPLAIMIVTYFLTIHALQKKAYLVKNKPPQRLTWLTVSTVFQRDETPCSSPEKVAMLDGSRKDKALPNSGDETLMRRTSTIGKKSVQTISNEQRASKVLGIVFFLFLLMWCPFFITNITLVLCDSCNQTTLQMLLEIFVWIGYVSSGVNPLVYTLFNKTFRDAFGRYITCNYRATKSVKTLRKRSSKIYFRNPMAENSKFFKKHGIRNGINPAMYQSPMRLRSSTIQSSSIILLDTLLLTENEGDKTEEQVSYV
T7 sequence (P07550 whole entry): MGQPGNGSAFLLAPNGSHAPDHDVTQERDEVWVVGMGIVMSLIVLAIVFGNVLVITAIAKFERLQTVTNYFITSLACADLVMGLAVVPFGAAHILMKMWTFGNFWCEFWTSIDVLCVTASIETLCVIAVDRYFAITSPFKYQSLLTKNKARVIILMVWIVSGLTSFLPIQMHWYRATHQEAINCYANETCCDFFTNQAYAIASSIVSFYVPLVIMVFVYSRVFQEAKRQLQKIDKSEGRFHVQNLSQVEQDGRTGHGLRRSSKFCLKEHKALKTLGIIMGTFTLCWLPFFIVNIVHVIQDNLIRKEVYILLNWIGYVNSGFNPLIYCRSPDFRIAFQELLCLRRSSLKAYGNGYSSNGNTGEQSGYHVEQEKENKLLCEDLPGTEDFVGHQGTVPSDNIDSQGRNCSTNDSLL
T9 sequence (P31645 whole entry): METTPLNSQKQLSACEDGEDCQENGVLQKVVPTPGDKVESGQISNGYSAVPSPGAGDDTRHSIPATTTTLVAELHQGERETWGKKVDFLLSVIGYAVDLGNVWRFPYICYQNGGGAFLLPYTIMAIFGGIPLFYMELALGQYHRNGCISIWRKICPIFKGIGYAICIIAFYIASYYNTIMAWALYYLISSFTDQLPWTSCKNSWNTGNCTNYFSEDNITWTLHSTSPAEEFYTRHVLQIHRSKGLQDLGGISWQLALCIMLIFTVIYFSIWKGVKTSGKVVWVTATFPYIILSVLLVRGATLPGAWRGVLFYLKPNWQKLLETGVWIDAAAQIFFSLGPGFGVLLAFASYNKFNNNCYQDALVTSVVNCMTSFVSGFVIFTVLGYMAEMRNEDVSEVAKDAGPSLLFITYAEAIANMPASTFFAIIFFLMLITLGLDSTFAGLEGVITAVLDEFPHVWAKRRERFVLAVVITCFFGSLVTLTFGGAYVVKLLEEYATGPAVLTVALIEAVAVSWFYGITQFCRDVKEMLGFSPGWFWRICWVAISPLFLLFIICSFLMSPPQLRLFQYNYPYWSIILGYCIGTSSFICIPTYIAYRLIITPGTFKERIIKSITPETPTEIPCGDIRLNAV
T5 sequence (P18825 whole entry): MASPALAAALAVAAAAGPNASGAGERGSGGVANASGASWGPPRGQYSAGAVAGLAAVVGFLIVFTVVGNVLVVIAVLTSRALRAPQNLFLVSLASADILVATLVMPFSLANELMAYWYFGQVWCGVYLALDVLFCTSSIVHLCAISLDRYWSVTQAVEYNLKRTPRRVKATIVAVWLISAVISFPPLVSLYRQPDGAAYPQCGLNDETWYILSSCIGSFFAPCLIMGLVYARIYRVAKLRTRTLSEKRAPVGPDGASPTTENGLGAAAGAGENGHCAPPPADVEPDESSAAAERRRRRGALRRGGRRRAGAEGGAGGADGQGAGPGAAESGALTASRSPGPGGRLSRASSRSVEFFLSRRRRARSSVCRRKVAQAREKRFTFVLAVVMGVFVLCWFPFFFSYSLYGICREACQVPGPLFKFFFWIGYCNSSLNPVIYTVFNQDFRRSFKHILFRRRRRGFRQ
T4 sequence (P28566 whole entry): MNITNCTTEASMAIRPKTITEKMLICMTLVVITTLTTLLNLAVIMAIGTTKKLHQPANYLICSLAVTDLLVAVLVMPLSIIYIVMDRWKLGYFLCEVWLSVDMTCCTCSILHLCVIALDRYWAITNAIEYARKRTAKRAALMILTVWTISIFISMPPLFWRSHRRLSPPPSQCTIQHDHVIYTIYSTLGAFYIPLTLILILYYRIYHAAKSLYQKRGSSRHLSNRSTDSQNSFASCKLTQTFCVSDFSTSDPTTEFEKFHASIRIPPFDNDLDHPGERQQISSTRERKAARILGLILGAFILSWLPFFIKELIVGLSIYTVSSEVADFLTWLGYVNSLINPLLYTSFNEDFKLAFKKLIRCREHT

For `Cc1ncsc1-c1ccc([C@H](C)NC(=O)[C@@H]2C[C@@H](O)CN2C(=O)[C@@H](NC(=O)CNC(=O)c2ccc(F)c(-c3ccc(N4C[C@@H](C)N(C)[C@@H](C)C4)c(NC(=O)c4c[nH]c(=O)cc4C(F)(F)F)c3)c2)C(C)(C)C)cc1` [MS67], the inhibition at 10 µM (SET1b Complex) was less than 10%, the inhibition at 10 µM (PRMT5/MEP50 Complex) was less than 10% and the inhibition at 10 µM (EZH2 Complex) was less than 10%. For the same compound, the inhibition at 10 µM (EZH1 Complex) was less than 10%, the Kd (von Hippel–Lindau (VHL)) was 140 ± 7.2 nM and the Kd [1] was 63 ± 10 nM. It also gave an inhibition at 1 µM (5-HT2B) of less than 10%, an inhibition at 1 µM (D4) of less than 10% and an inhibition at 1 µM (5-HT1B) of less than 10%. The inhibition at 1 µM (5-HT1E) was less than 10%, the inhibition at 1 µM (Alpha2C) was less than 10% and the inhibition at 1 µM (NET) was less than 10%. For the same compound, the inhibition at 1 µM (Beta2) was less than 10%, the inhibition at 1 µM (M5) was less than 10% and the inhibition at 1 µM (SERT) was less than 10%. The inhibition at 1 µM (5-HT2C) was less than 10%, the inhibition at 10 µM (SUV39H1) was less than 10% and the inhibition at 10 µM (PRMT3) was less than 10%. It also gave an inhibition at 10 µM (PRMT6) of less than 10%.
